# Source: PMC8837544, “Pharmacological inhibition of MERTK induces in vivo retinal degeneration: a multimodal imaging ocular safety assessment” (Archives of Toxicology, 2022)
# Several values for one entry are separate records, joined by “and”; a condition that tells them apart may be missing. Identical values can stand only once.
# What was measured:
# [1] = Mouse plasma protein binding; assay type: in vitro ADME
# [2] = molecular target: MAP4K5 (KHS1) (Homo sapiens, UniProt Q9Y4K4); settings: 1 μM
# [3] = LogD7.4; assay type: physicochemical; settings: pH 7.4
# [4] = test system: retina; settings: mouse, in vivo
# Protocol: (§1) All in vivo experimental procedures were conducted in accordance with United Kingdom legislation (Animals (Scientific Procedures) Act, 1986) and were compliant with the ARRIVE guidelines. 6–7-week-old female (20–25 g) C57BL/6 J mice (Charles River Laboratories Ltd, UK) were acclimatized to the facility for 10 days and then randomized to groups based on bodyweight; vehicle control (n = 6, animals 1–6) and MERTK inhibitor treatment (n = 9, animals 7–15). Animals were treated via oral gavage with vehicle control (60% v/v 0.1 M HCl, 20% v/v PEG 400, 20% v/v purified water pH 3.5–4.5) or AZ14145845 (200 mg/kg). All animals were dosed twice daily with a dose volume of 10 mL/kg for 28 days, with the final dose being administered on the morning of Day 29. The dose interval between the first and second dose on each day was 8 h. […] Samples for histopathology were taken from 6 controls (animals 1–6), 8 treated animals (animals 7–11, 13–15) and for electron microscopy from 1 control (animal no. 1) and 3 treated animals (animals 8–10) and for MSI from 3 treated animals (animals 13–15).
# [5] = Solubility; assay type: physicochemical
# [6] = test system: Mer kinase Ba/F3 xenograft; settings: 200 mg/kg, ref McCoull et al. [2021]; cited from earlier work
# [7] = Mouse pharmacokinetics; assay type: in vivo
# [8] = Human plasma protein binding; assay type: in vitro ADME
# [9] = test system: retina; assay: Retinal histopathology (H&E light microscopy) in 28 day mouse safety study; assay type: in vivo, C57BL/6 J mice
# [10] = CaCo2 permeability and efflux; assay type: in vitro ADME
# [11] = 200 mg/kg BID, C57BL/6 J mice, 28 days
# Protocol: as §1
# A whole blood sample (32 µL) was collected via a tail vein prick into a K2-EDTA treated capillary tube, centrifuged at 1500g for 10 min at 4 °C, and plasma collected using a micropipette (non-EDTA Ref.no. 172292, Vitrex Medical A/S, Denmark). Samples were collected on Day 1 at 30 min, 2-h, 8-h (pre-second dose) and 24-h post the first dose. On days 7, 28, 29 samples were collected at 2-h post the first dose and at 8-h pre the second dose.
# [12] = molecular target: Flt3 (Homo sapiens, UniProt P36888)
# Protocol: (§2) Biochemical assays for Mer, Axl, Tyro3 and Flt3 were performed using a Rapidfire LCMS method as previously described (Nissink et al. [2021]). Cellular assays for pMer, pAxl, pTyro3, pFLT3 were performed in transiently transfected Cos-7 (Monkey: African green) cell lines as previously described. The macrophage efferocytosis assay was performed as previously described (Clark et al. [2019]).
# [13] = molecular target: Mer (Homo sapiens, UniProt Q12866)
# Protocol: as §2
# [14] = molecular target: T1, Axl (Homo sapiens, UniProt P30530)
# Protocol: as §2
# [15] = MALDI mass spectrometry imaging of whole eye sections (quantitative MSI); assay type: in vivo, C57BL/6 J mice
# Protocol: as §1
# [16] = test system: ARPE19, human retinal epithelial cells; assay: Phagocytosis of photoreceptor outer segments (POS) in human retinal cells; assay type: cell-based; settings: 3 μM, 6-h incubation, FITC-labeled POS
# Protocol: ARPE19, human retinal epithelial cells, were cultured in Dulbecco’s modified Eagle’s medium (DMEM/F12, supplemented with 10% fetal bovine serum). All culture materials were purchased from Thermo Fisher Scientific. Cells were seeded at 10,000 cells per well in CellCarrier imaging plates (Perkin Elmer) and cultured for up to 6 weeks to allow for polarization of the cell layer. On the day of treatment cells were washed three times in PBS and then incubated in serum free conditions with FITC-labeled POS at a concentration of 10 POS/cell and either DMSO or 3 μM of AZ14145845 in DMSO. Following incubation for 6 h, cells were washed with PBS to remove non-internalized POS and fixed in 4% PFA. Following staining of nuclei with Hoechst, cells were imaged using a […] ImageExpress Confocal microscope. Each well was imaged at 20 × with 16 images taken per well. Analysis modules were written using the custom module editor of MetaXpress vers 6.5.4.532. Nuclei were segmented and enumerated using the embedded count nuclei module. Individual POS particles were segmented and counted on a per image basis using the same custom module. Data are expressed as fold change in total POS per cell over control. Experiments were carried out a minimum of 3 times.
# [17] = molecular target: T1, Axl; settings: 1 μM
# [18] = molecular target: hERG (Homo sapiens, UniProt Q12809); settings: read-out: hERG
# [19] = Bodyweight and tolerability in 28 day mouse safety study; settings: day 5 onwards, remainder of the study
# Protocol: as §1
# [20] = HLM intrinsic clearance; assay type: in vitro ADME, human
# [21] = test system: macrophage efferocytosis; assay: Macrophage efferocytosis assay; assay type: cell-based
# [22] = molecular target: MERTK (Homo sapiens, UniProt Q12866); settings: 1 μM
# [23] = Ocular exposure in the rat (melanin binding); assay type: in vivo; settings: for eye partition coefficient (Kp): iv infusion 2 μmol/kg/h, 4-h post infusion
# Protocol: Male pigmented Long Evans and non-pigmented Han Wistar rats were treated via intravenous infusion of AZ14145845 at a dose of 2 μmol/kg/h in a TEG:DMA:H2O (1:1:1) formulation, dose volume 4 mL/kg. At 4-h post the 15-min intravenous infusion, the animals were killed and the eyes extracted and homogenized to determine the concentration of AZ14145845 in the eye.
# [24] = test system: retina; settings: mouse, cited from earlier work
# [25] = animals 13-15, 200 mg/kg BID 28 days
# T1 sequence (P30530 26-894): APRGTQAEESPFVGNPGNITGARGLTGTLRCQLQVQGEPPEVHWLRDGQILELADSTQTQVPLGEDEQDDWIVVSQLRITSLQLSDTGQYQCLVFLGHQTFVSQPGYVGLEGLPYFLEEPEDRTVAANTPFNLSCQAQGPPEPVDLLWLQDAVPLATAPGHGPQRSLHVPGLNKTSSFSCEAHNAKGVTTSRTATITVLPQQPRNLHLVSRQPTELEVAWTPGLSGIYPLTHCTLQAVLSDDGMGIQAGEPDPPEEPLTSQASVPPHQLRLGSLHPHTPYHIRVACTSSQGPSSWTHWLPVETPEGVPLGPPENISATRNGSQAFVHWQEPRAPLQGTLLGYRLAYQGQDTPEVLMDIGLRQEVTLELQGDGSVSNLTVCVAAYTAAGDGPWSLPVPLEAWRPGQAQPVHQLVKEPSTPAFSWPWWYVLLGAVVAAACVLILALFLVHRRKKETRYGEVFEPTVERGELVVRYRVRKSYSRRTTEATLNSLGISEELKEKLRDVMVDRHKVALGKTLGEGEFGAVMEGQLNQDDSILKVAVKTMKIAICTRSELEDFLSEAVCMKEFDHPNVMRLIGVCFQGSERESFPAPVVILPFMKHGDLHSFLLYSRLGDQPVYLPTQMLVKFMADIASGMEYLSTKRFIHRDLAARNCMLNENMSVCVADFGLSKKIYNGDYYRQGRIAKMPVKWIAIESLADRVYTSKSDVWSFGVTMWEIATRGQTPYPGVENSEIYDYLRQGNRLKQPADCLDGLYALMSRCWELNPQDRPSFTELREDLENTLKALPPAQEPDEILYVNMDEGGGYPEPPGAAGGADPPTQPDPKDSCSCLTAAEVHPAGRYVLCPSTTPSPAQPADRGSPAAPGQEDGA
# Mer, sequence (Q12866 21-999): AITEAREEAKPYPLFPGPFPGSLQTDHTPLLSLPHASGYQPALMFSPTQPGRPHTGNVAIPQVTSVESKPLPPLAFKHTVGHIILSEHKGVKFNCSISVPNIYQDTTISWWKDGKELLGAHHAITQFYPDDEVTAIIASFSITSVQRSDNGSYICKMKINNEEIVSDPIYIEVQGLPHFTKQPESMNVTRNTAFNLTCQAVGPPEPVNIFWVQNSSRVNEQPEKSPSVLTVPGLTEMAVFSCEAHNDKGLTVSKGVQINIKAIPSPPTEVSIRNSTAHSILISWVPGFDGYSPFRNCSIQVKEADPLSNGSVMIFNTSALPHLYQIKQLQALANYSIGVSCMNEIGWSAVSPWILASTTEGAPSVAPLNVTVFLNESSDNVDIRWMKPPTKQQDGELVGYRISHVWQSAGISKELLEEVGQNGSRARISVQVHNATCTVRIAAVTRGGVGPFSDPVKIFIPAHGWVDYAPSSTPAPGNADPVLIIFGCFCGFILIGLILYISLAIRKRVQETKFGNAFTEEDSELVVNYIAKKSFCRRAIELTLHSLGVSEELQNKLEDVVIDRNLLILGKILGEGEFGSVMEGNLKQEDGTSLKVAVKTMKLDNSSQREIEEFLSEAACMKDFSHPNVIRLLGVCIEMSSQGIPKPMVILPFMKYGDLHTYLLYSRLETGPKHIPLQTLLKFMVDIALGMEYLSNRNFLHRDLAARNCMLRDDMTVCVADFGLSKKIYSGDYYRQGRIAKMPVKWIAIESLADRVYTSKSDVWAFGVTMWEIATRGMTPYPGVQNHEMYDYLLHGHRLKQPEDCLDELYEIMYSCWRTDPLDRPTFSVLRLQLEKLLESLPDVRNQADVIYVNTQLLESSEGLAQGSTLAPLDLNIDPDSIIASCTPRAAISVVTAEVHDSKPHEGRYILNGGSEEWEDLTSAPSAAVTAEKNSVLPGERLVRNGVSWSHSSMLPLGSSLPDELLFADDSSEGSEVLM
# Flt3, sequence (P36888 27-993): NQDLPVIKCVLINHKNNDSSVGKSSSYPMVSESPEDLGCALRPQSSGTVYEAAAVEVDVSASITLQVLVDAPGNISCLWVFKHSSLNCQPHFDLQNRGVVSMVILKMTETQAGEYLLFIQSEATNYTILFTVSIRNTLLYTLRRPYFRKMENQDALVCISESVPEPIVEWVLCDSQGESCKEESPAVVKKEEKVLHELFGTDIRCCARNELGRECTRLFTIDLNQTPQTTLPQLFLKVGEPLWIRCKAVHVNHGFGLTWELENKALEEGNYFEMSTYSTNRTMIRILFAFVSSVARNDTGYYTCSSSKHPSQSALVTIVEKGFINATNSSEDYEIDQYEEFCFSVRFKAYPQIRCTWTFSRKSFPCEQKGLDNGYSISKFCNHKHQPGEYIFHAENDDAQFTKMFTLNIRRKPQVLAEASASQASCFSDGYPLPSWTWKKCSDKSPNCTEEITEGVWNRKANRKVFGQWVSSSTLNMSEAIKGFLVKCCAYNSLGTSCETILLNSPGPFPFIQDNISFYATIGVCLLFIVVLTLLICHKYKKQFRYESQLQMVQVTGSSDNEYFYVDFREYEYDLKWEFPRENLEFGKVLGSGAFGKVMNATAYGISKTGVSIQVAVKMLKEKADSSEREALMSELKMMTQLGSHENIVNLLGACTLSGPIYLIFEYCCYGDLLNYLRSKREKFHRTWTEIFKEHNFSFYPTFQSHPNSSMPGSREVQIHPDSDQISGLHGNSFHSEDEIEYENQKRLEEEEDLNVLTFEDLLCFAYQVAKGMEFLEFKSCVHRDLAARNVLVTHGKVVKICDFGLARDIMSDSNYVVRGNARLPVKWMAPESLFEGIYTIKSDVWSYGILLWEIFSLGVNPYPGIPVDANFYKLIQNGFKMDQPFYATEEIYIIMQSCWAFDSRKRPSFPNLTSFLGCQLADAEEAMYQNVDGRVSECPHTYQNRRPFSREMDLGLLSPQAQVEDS
# MAP4K5 (KHS1), sequence (Q9Y4K4 whole entry): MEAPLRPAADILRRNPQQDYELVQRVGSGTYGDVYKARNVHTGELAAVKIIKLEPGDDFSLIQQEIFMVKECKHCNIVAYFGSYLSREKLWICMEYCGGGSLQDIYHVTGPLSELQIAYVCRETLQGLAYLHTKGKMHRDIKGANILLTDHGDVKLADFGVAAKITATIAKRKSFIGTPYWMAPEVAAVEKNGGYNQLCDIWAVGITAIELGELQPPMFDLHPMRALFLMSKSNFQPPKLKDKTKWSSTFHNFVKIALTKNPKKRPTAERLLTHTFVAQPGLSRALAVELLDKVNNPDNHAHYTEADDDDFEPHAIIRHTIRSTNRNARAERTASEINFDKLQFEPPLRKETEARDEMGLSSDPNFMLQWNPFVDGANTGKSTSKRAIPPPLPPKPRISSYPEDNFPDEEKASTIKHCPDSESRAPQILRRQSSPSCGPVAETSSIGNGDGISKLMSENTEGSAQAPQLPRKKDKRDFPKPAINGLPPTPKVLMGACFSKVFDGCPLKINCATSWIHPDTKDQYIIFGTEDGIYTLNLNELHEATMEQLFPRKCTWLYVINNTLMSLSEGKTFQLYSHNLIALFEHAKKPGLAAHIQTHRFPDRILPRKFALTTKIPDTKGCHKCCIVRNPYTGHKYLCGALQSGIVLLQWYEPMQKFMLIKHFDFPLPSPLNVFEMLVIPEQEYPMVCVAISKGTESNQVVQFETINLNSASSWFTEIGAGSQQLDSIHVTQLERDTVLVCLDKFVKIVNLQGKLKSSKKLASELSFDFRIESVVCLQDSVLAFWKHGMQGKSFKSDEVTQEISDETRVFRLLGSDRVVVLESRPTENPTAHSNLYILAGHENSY
# hERG, sequence (Q12809 whole entry): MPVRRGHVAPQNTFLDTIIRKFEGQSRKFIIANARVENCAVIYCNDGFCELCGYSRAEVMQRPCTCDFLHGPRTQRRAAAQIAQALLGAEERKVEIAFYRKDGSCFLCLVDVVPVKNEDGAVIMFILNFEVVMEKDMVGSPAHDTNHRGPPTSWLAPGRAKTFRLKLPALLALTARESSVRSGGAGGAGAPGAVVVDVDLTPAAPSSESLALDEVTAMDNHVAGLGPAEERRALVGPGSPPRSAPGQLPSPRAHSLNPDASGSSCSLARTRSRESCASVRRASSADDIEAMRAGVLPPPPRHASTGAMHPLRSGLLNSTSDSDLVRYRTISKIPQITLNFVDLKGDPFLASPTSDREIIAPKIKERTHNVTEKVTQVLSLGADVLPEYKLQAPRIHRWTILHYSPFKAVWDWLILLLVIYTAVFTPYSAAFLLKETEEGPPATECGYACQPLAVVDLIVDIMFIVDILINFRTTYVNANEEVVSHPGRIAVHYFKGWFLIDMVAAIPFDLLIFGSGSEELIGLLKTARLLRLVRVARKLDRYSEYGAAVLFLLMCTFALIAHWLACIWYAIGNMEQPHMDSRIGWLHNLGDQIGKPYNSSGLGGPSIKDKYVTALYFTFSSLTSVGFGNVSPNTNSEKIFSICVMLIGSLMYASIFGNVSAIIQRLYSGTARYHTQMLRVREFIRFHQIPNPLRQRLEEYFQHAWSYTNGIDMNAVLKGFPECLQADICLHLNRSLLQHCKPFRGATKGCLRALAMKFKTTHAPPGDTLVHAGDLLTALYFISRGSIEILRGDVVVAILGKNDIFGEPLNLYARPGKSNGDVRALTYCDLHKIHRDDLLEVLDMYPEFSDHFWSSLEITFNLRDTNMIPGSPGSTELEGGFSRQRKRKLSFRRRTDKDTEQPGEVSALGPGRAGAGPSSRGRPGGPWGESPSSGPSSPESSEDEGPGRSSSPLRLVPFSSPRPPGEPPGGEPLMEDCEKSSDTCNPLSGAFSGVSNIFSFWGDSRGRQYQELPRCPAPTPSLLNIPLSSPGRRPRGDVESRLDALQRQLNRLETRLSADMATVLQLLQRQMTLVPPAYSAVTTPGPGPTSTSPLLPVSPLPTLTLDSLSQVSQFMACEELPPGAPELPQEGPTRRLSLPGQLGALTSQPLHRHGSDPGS
# MERTK, sequence (Q12866 21-999): as the sequence (Q12866 21-999) above
compound,measurement,setting,value
Cc1cc(-c2c(C)nn(C)c2C)cnc1-c1nnc(N(C)Cc2ccc3ncc(-c4ccc(CN(C)C)cc4)n3c2)o1 [AZ14145845],Mouse PPB (% free),[1],7.6 % free
same,inhibition of MAP4K5 (KHS1) in kinome profiling,[2],> 75%
same,LogD7.4,[3],2.9
same,ultra-structural findings by TEM,[4],ultra-structural changes at the interface between the POS and the RPE
same,Solubility,[5],938 µM
same,efficacy in xenograft tumor model,[6],showed efficacy
same,bioavailability,[7]; mouse,15%
same,clearance,[7]; mouse,44 mL/min/kg
same,volume of distribution at steady state,[7]; mouse,3.7 L/kg
same,dose dependence of Cmax and AUC,[7]; up to 200 mg/kg,Dose linear increase
same,Human PPB (% free),[8],14 % free
same,Total of any retinal degeneration/atrophy (of number examined),"[9]; 200 mg/kg BID, 28 days, one eye per mouse",4 of 8
same,length of the retina affected by focal lesion,"[9]; animal no. 10, lesion midway between optic nerve and peripheral limit",approximately 25%
same,extent of retina affected,"[9]; animal no. 14, most severe microscopic changes",entire length of retina
same,length of the retina affected by focal lesions,"[9]; animal numbers 8 and 9, lesions towards the periphery of the retina",approximately 20%
same,Number of animals with no H&E findings,"[9]; n = 8 treated mice, 200 mg/kg BID, 28 days, one eye per mouse, 200 mg/kg",four of the eight and 4
same,Moderate retinal degeneration/atrophy (number of animals),"[9]; n = 8 treated mice, diffuse distribution, animal 14",1 with diffuse distribution
same,Minimal retinal degeneration/atrophy (number of animals),"[9]; n = 8 treated mice, focal distribution, animals 8, 9, 10",3 with focal distribution
same,CaCo2 efflux ratio,[10],10
same,accumulation in plasma,[11],no accumulation was observed
same,average free cover over MERTK Cos-7 cell IC50 at Cmax,[11],90 fold
same,average free cover over MERTK Cos-7 cell IC50 at Cmin,[11],21 fold
same,Flt3 enzyme (pIC50),[12],< 4.5/ < 4.5
same,Flt3 cell (pIC50),[12]; Cos-7 cell,< 4.5/ < 4.5
same,Mer enzyme (pIC50),[13],9.0
same,Mer cell (pIC50),[13]; Cos-7 cell,7.7 and 7.8
same,Axl enzyme (pIC50),[14],7.9
same,Axl cell (pIC50),[14]; Cos-7 cell,7.0
same,A2E (RPE marker) in the posterior part of the eye by MSI,[15]; animal no. 14 compared to animals no. 13 and 15,dramatic decrease
same,Total concentration in the anterior region of the eye (QMSI),[15]; [25],~ 11 µM
same,Total concentration in the posterior region of the eye (QMSI),[15]; [25],~ 9 µM
same,Total concentration in the whole eye (QMSI),[15]; [25],~ 3 µM
same,ocular distribution by MSI,"[15]; whole eye sections, 20 µm spatial resolution",largely localized in the pigmented retinal tissues of the RPE and choroid layers
same,drop in the number of internalized POS,[16],~60%
same,inhibition of AXL in kinome profiling,[17],> 90%
same,IC50,[18],5.7 µM
same,weight gain above baseline,[19],3–6%
same,HLM CLint,[20],195 µL/min/mg protein
same,Efferocytosis (pIC50),[21],7.6
same,inhibition of MERTK in kinome profiling,[22],> 90%
same,"difference in eye Kp, pigmented vs non-pigmented rats",[23]; assumed consequence of melanin binding,~ ten-fold
same,eye partition coefficient (Kp),[23]; non-pigmented Han Wistar rat,2.5
same,eye partition coefficient (Kp),[23]; pigmented Long Evans rat,19
CCCCNc1ncc2c(-c3ccc(F)cc3)nn(CC3CCC(N)CC3)c2n1 (stereo not shown) [UNC-569],electron microscopic evaluation of the retina,[24]; in vivo,accumulation of membrane-bound multi-lamellated bodies in the RPE cells
same,microscopic examination of H&E-stained tissue sections of the eye,[24]; in vivo,No changes were detected
same,duration of inhibition of MERTK phosphorylation in retinal tissue,"[24]; post oral administration, ref Sayama et al. [2018]",up to 17 h
